Measurements taken from patent publication US10815208B2, “Method for preparing 2-hydroxyl-4-(2, 3-disubstituted benzyloxy)-5-substituted benzaldehyde derivative” (Institute of Materia Medica, Chinese Academy of Medical …, priority 2016, dated 2020).

Tests used:
[1] = target: PD-1/PD-L1 (Homo sapiens (Human), UniProt Q9NZQ7); assay: Cisbio HTRF binding assay, PD-1/PD-L1 small molecule inhibitor screening; conditions: for IC50: HTRF, PD-1 (HIS tag) / PD-L1 (hFc tag), 8-10 concentrations
Excerpt: In vitro activity evaluation: Cisbio HTRF binding assay kit was applied for the detection method of in vitro enzymology level.
Screening Principles and Methods of PD-1/PD-L1 Small Molecule Inhibitors
1) Principle: PD-1 protein is with HIS tag, and PD-1 ligand PD-L1 is with hFc tag. Eu labeled anti-hFc antibody and XL665 labeled anti-HIS antibody are combined with the above two label proteins respectively. After laser excitation, energy can be transferred from donor Eu to receptor XL665, allowing XL665 to glow.
2) Experimental method: Reagents should be dispensed in the following order. For 384-well white ELISA plate, 2 μl of diluent or target compound diluted with diluent was added to each well, and then 4 μl of PD-1 protein and 4 μl of PD-L1 protein were added per well, incubated for 15 min at the room temperature; and 10 μl of anti-Tag1-Eu3^+ and anti-Tag2-XL665 was added per well and incubated for 1 h at the room temperature and the fluorescence signals at 665 nm and 620 nm were measured. HTRF rate=(665 nm/620 nm)*10^4. 8-10 concentrations were detected for each compound and IC50 was calculated by Graphpad software.

[2] = test system: advanced triple-negative breast cancer; conditions: in vivo; cited from earlier work
[3] = test system: advanced Hodgkin's lymphoma (HL); conditions: advanced HL patients with no treatment response to any of the approved drugs; cited from earlier work
[4] = test system: pleural mesothelioma (PM); conditions: 25 patients with pleural mesothelioma (PM); cited from earlier work

PD-1/PD-L1, sequence (Q9NZQ7 19-238): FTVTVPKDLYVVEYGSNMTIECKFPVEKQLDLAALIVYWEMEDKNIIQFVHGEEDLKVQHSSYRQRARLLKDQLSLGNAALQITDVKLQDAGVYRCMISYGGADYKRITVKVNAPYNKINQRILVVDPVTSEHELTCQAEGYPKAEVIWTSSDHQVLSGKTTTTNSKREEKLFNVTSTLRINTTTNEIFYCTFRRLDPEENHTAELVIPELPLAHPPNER

Compound | inhibition of the interaction between PD-1 and PD-L1 [1] | IC50 [1] | treatment response [3] | further results
CC(=O)NCCNCc1cc(Cl)c(OCc2cccc(-c3ccccc3)c2Br)cc1OCc1cccc(C#N)c1 [Example 2, N-acetylaminoethyl-4-(2-bromo-3-phenylbenzyloxy)-2-(3-cyanobenzyloxy)-5-chlorobenzylamine] | significantly inhibit | 62.3 nM |  | 
(R)—N-[2-(5-cyanopyridine-3-methyleneoxy)-4-(2-methyl-3-(2,3-dihydrobenzo[b][1,4]dioxin-6-yl)benzyloxy)-5-chlorobenzyl]-3-(pyridin-3-yl)alanine [Example 6] | significantly inhibit | 35 nM |  | 
MPDL3280A: Roche's PD-L1 monoclonal antibody |  |  |  | effect in advanced triple-negative breast cancer [2]: long-lasting effect
nivolumab [Opdvio] |  |  | complete remission | 
pembrolizumab [Keytruda] |  |  | complete remission | disease control rate [4]: 76%; overall response rate (ORR) [4]: 28%
